Measured values taken from PubChem BioAssay AID1918943 (Molecular Pharmacology Branch, DTP, NCI, 2023).

Test system: 855422-203-R-J1-PDC complex spheroid viability
Assay: Anticancer human tumor 855422-203-R-J1-PDC patient-derived bladder carcinoma cell line growth inhibition
Conditions: for IC50: curve of first compound; for viability, T/C: stronger effect = lower value
Text: Multicellular complex tumor spheroid response to LSD1 Inhibitor Iadademstat in combination with a variety of drugs and investigational agents in selected tumor cell lines
The current study was undertaken to assess response to LSD1 inhibitors in combination with standard-of-care drugs and investigational agents in solid tumor complex spheroid models as well as in the K-562 leukemia. Complex spheroids include a stromal component modeled by human endothelial cells (HUVEC) and fibroblasts modeled by human mesenchymal stem cells (MSCs). The concentration ranges selected for each drug and investigational agent were based upon clinically achievable concentrations if the clinical Cmax of the agent was known.
Compounds. The drugs and investigational agents used in this study are listed on Table 1. All of the agents used, including staurosporine (NSC755774) and gemcitabine (NSC613327), were obtained from the Developmental Therapeutics Program, NCI. FDA-approved anticancer drugs are available from the NCI at http://dtp.nci.nih.gov/branches/dscb/oncology_drugset_explanation.html. Drugs and investigational agents were >95% pure by proton nuclear magnetic resonance (NMR) and liquid chromatography/mass spectrometry (LC/MS). Stock solutions were prepared at 400x in DMSO, stored at -70 degrees C, and diluted in fresh medium prior to their use. The final concentration of DMSO in cell culture wells never exceeded 0.25% (v/v). The FDA-approved anticancer drug set is available from the Developmental Therapeutics Program at https://dtp.cancer.gov/organization/dscb/obtaining/available_plates.htm. All drugs and investigational agents were tested over a range starting from a high concentration at or near the clinical Cmax and decreasing in half-log increments. If the clinical Cmax for an agent had not been determined, the highest concentration tested was 10 microM.
Cell Lines. The patient-derived cancer cell (PDC) lines: 292921-168-R-J2-PDC, K24384-001-R-PDC, and 521955-158-R2-J5-PDC pancreatic carcinomas, 556581-035-R-J1 ovarian carcinoma, 324938-238-R-J1-PDC, 855422-203-R-J1-PDC and 883617-216-R-J1-PDC urothelial bladder carcinomas, 743489-274-T-PDC renal cell carcinoma, 138582-R-J1 Merkel cell tumor, K60290-347-R-J1 and K57222-313-R-J1-PDC glioblastomas, 653999-131-R-J2-PDC, LG0703-F948-PDC, and 349418-098-R-PDC non-small cell lung carcinomas, 885512-296-R-J2-PDC, 171881-019-R-J1-PDC breast carcinomas and 186277-243-T-J2-PDC and 233499-124-R-J2-PDC colon carcinomas were obtained from the NCI Patient-Derived Models Repository (PDMR, https://pdmr.cancer.gov). The established cell lines NCI/ADR-RES (RRID:CVCL_14520 and OVCAR-5 (RRID:CVCL_1628) ovarian carcinomas, 786-O (RRID:CVCL_1051) and A498 (RRID:CVCL_A498) renal cell carcinoma, NCI-H211 (ATCC, cat. CRL-5824; RRID:CVCL_1529), NCI-H196 (ATCC, cat. CRL-5823, RRID:CVCL_1509), SW 1271 (ATCC, cat. CRL-2177, RRID:CVCL_1716) and NCI-H1876 (ATCC, cat. CRL-5902, RRID:CVCL_1503) small cell lung carcinomas, MDA-MB-231 (RRID:CVCL_0062) and MDA-MB-468 (RRID:CVCL_0419)breast carcinomas (10-12). Pooled donor human umbilical vein endothelial cells (HUVEC, Lonza, cat. CC-2519) and human mesenchymal stem cells (hMSC, Lonza, cat. PT-2501) were purchased from Lonza (Walkersville, MD).
Cell Culture. All cells were maintained in an incubator at 37 degrees C and 5% CO2 with 95% humidity. The PDC lines were cultured according to standard operating procedures established by the NCI PDMR (https://pdmr.cancer.gov). Briefly all PDCs were thawed and cultured in Matrigel-coated flasks prepared with a working solution of 1X Ham's F-12 nutrient mix, without supplementation (Invitrogen, Waltham, MA, cat. 11765054), 100 U/mL penicillin-streptomycin (Invitrogen, cat. 15140122), and 2.5% Matrigel (Corning Inc., Corning, NY, cat. 354248) for the first three passages. […]

[1] = second compound 0.1 µM, first compound 0.00316 µM
[2] = second compound 0.1 µM, first compound 0.01 µM
[3] = second compound 0.1 µM, first compound 0.0316 µM
[4] = second compound 0.1 µM, first compound 0.1 µM
[5] = second compound 0.316 µM, first compound 0.00316 µM
[6] = second compound 0.316 µM, first compound 0.01 µM
[7] = second compound 0.316 µM, first compound 0.0316 µM
[8] = second compound 0.316 µM, first compound 0.1 µM
[9] = second compound 1 µM, first compound 0.00316 µM
[10] = second compound 1 µM, first compound 0.01 µM
[11] = second compound 1 µM, first compound 0.0316 µM
[12] = second compound 1 µM, first compound 0.1 µM
[13] = second compound 3.16 µM, first compound 0.00316 µM
[14] = second compound 3.16 µM, first compound 0.01 µM
[15] = second compound 3.16 µM, first compound 0.0316 µM
[16] = second compound 3.16 µM, first compound 0.1 µM
[17] = second compound 10 µM, first compound 0.00316 µM
[18] = second compound 10 µM, first compound 0.01 µM
[19] = second compound 10 µM, first compound 0.0316 µM
[20] = second compound 10 µM, first compound 0.1 µM
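Note: drug exposure lasted 7 days starting on day 3 after seeding.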
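Throughout, for viability, T/C: luminescence viability as percent of DMSO vehicle wells = 100%.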

Compound CC[C@@]1(O)C(=O)OCc2c1cc1n(c2=O)Cc2cc3c(CN(C)C)c(O)ccc3nc2-1 + NC1CC1c1ccc(-c2cccc(O)c2)cc1 has an IC50 (second compound 0.1 µM) of 8.59 nM, an IC50 (second compound 0.316 µM) of 7.94 nM and an IC50 (second compound 1 µM) of 7.85 nM. It also gave an IC50 (second compound 3.16 µM) of 6.85 nM, an IC50 (second compound 10 µM) of 6.35 nM and a viability, T/C (second compound 0.1 µM, first compound 0.000316 µM) of 97.8%. For the same compound, the viability, T/C (second compound 0.1 µM, first compound 0.001 µM) was 102%, the viability, T/C [1] was 98.1% and the viability, T/C [2] was 42.7%. For the same compound, the viability, T/C [3] was 21.8%, the viability, T/C [4] was 19.4% and the viability, T/C (second compound 0.316 µM, first compound 0.000316 µM) was 98.9%. For the same compound, the viability, T/C (second compound 0.316 µM, first compound 0.001 µM) was 102%, the viability, T/C [5] was 92.8% and the viability, T/C [6] was 39.1%. The viability, T/C [7] was 22.8%, the viability, T/C [8] was 19.4% and the viability, T/C (second compound 1 µM, first compound 0.000316 µM) was 90.5%. For the same compound, the viability, T/C (second compound 1 µM, first compound 0.001 µM) was 94.6%, the viability, T/C [9] was 84.8% and the viability, T/C [10] was 40.5%. The viability, T/C [11] was 22.8%, the viability, T/C [12] was 18.8% and the viability, T/C (second compound 3.16 µM, first compound 0.000316 µM) was 85.7%. For the same compound, the viability, T/C (second compound 3.16 µM, first compound 0.001 µM) was 90.3%, the viability, T/C [13] was 87.2% and the viability, T/C [14] was 31.8%. For the same compound, the viability, T/C [15] was 20.9%, the viability, T/C [16] was 18.6% and the viability, T/C (second compound 10 µM, first compound 0.000316 µM) was 81.5%. The viability, T/C (second compound 10 µM, first compound 0.001 µM) was 97.3%, the viability, T/C [17] was 82.2% and the viability, T/C [18] was 28.9%. For the same compound, the viability, T/C [19] was 21.5% and the viability, T/C [20] was 16.3%.
With COc1cc(C2c3cc4c(cc3C(OC3OC5COC(C)OC5C(O)C3O)C3COC(=O)C23)OCO4)cc(OC)c1O (stereo not given) + NC1CC1c1ccc(-c2cccc(O)c2)cc1 the IC50 (second compound 0.1 µM) was 148 nM, the IC50 (second compound 0.316 µM) was 155 nM and the IC50 (second compound 1 µM) was 129 nM. The IC50 (second compound 3.16 µM) was 119 nM, the IC50 (second compound 10 µM) was 92.1 nM and the viability, T/C (second compound 0.1 µM, first compound 0.00949 µM) was 96.3%. For the same compound, the viability, T/C (second compound 0.1 µM, first compound 0.03 µM) was 98.3%, the viability, T/C (second compound 0.1 µM, first compound 0.0949 µM) was 59.5% and the viability, T/C (second compound 0.1 µM, first compound 0.3 µM) was 31.1%. The viability, T/C (second compound 0.1 µM, first compound 0.949 µM) was 19.7%, the viability, T/C (second compound 0.1 µM, first compound 3 µM) was 10.7% and the viability, T/C (second compound 0.316 µM, first compound 0.00949 µM) was 101%. The viability, T/C (second compound 0.316 µM, first compound 0.03 µM) was 102%, the viability, T/C (second compound 0.316 µM, first compound 0.0949 µM) was 60.9% and the viability, T/C (second compound 0.316 µM, first compound 0.3 µM) was 32.6%. The viability, T/C (second compound 0.316 µM, first compound 0.949 µM) was 19.7%, the viability, T/C (second compound 0.316 µM, first compound 3 µM) was 11.6% and the viability, T/C (second compound 1 µM, first compound 0.00949 µM) was 91.6%. For the same compound, the viability, T/C (second compound 1 µM, first compound 0.03 µM) was 95.8%, the viability, T/C (second compound 1 µM, first compound 0.0949 µM) was 55.4% and the viability, T/C (second compound 1 µM, first compound 0.3 µM) was 28.9%. It also gave a viability, T/C (second compound 1 µM, first compound 0.949 µM) of 17.6%, a viability, T/C (second compound 1 µM, first compound 3 µM) of 10.9% and a viability, T/C (second compound 3.16 µM, first compound 0.00949 µM) of 100%. It also gave a viability, T/C (second compound 3.16 µM, first compound 0.03 µM) of 96.9%, a viability, T/C (second compound 3.16 µM, first compound 0.0949 µM) of 52.3% and a viability, T/C (second compound 3.16 µM, first compound 0.3 µM) of 27.9%. The viability, T/C (second compound 3.16 µM, first compound 0.949 µM) was 16.2%, the viability, T/C (second compound 3.16 µM, first compound 3 µM) was 8.34% and the viability, T/C (second compound 10 µM, first compound 0.00949 µM) was 99.5%. For the same compound, the viability, T/C (second compound 10 µM, first compound 0.03 µM) was 97%, the viability, T/C (second compound 10 µM, first compound 0.0949 µM) was 46.5% and the viability, T/C (second compound 10 µM, first compound 0.3 µM) was 26.6%. It also gave a viability, T/C (second compound 10 µM, first compound 0.949 µM) of 18.4% and a viability, T/C (second compound 10 µM, first compound 3 µM) of 9.12%.
Compound Nc1ncn(C2CC(O)C(CO)O2)c(=O)n1 (stereo not given) + NC1CC1c1ccc(-c2cccc(O)c2)cc1 has an IC50 (second compound 0.1 µM) greater than 1000 nM, an IC50 (second compound 0.316 µM) greater than 1000 nM and an IC50 (second compound 1 µM) greater than 1000 nM. The IC50 (second compound 3.16 µM) was greater than 1000 nM, the IC50 (second compound 10 µM) was greater than 1000 nM and the viability, T/C [1] was 104%. For the same compound, the viability, T/C [2] was 98.2%, the viability, T/C [3] was 99.7% and the viability, T/C [4] was 106%. The viability, T/C (second compound 0.1 µM, first compound 0.316 µM) was 93.5%, the viability, T/C (second compound 0.1 µM, first compound 1 µM) was 92.4% and the viability, T/C [5] was 104%. For the same compound, the viability, T/C [6] was 95%, the viability, T/C [7] was 96.5% and the viability, T/C [8] was 91.6%. For the same compound, the viability, T/C (second compound 0.316 µM, first compound 0.316 µM) was 90.3%, the viability, T/C (second compound 0.316 µM, first compound 1 µM) was 88.7% and the viability, T/C [9] was 84.9%. It also gave a viability, T/C [10] of 88.6%, a viability, T/C [11] of 89.2% and a viability, T/C [12] of 93.5%. For the same compound, the viability, T/C (second compound 1 µM, first compound 0.316 µM) was 91.5%, the viability, T/C (second compound 1 µM, first compound 1 µM) was 86.7% and the viability, T/C [13] was 91.6%. It also gave a viability, T/C [14] of 83.3%, a viability, T/C [15] of 88% and a viability, T/C [16] of 86.6%. For the same compound, the viability, T/C (second compound 3.16 µM, first compound 0.316 µM) was 89.5%, the viability, T/C (second compound 3.16 µM, first compound 1 µM) was 84.2% and the viability, T/C [17] was 74.7%. It also gave a viability, T/C [18] of 76.8%, a viability, T/C [19] of 84.2% and a viability, T/C [20] of 82%. For the same compound, the viability, T/C (second compound 10 µM, first compound 0.316 µM) was 94.8% and the viability, T/C (second compound 10 µM, first compound 1 µM) was 85.2%.
